Assay results: patent publication US11370774B2, “Substituted benzofuran, benzopyrrole, benzothiophene, and structurally related complement inhibitors” (BioCryst Pharmaceuticals, Inc., priority 2018, dated 2022)

These compounds were tested against Factor D (Homo sapiens (Human), UniProt P00746) (assay: Factor D esterolytic assay (Z-Lys-SBzl substrate, DTNB, 405 nm)). Conditions: Z-Lys-SBzl 1.29 mM, pH 7.5, 10% DMSO, tested a minimum of three times, read-out: Measured Ki (IC50) Value for Compounds: IC50.
Type: biochemical
Method in brief: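 Human Factor D ([…]) with 1.29 mM Z-Lys-SBzl in 100 mM HEPES, 500 mM NaCl, pH 7.5, 10% DMSO; substrate added immediately or after room-temperature preincubation. Released thiol reacted with DTNB, rate followed at 405 nm for 600 sec, 690 nm background subtracted. IC50 from percent inhibition versus uninhibited rate, n≥3.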

Sequence of Factor D (P00746 26-253): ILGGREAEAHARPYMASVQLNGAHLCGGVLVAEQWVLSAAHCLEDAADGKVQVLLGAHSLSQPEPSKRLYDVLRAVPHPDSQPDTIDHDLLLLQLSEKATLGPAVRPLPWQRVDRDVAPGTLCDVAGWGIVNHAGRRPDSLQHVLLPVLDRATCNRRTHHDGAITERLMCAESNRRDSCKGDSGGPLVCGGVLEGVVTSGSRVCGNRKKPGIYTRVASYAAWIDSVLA

IC50	Structure (SMILES)
< 1000 nM	CCCc1ccc(CC(=O)O)c(OCc2cc(-c3cccc(CN)c3)c3occc3c2)c1 [Compound 266g, 2-(2-((7-(3-(aminomethyl)phenyl)benzofuran-5-yl)methoxy)-4-propylphenyl)acetic acid]
< 1000 nM	Cc1noc2c(-c3cccc(CN)c3F)cc(COc3ccccc3CC(=O)O)cc12 [Compound 267h, 2-(2-((7-(3-(aminomethyl)-2-fluorophenyl)-3-methylbenzo[d]isoxazol-5-yl)methoxy)phenyl)acetic acid]
< 1000 nM	Cc1noc2c(-c3ccnc(CN)c3)cc(COc3ccccc3CC(=O)O)cc12 [Compound 268h, 2-(2-((7-(2-(aminomethyl)pyridin-4-yl)-3-methylbenzo[d]isoxazol-5-yl)methoxy)phenyl)acetic acid]
< 1000 nM	Cc1ccc(CC(=O)O)c(OCc2cc(-c3cccc(CN)c3F)c3occc3c2)c1 [Compound 270c, 2-(2-((7-(3-(aminomethyl)-2-fluorophenyl)benzofuran-5-yl)methoxy)-4-methylphenyl)acetic acid]
< 1000 nM	Cc1ccc(CC(=O)O)c(OCc2cc(-c3ccnc(CN)c3)c3occc3c2)c1 [Compound 271e, 2-(2-((7-(2-(aminomethyl)pyridin-4-yl)benzofuran-5-yl)methoxy)-4-methylphenyl)acetic acid]
< 1000 nM	Cc1ccc(CC(=O)O)c(OCc2cc(-c3ccnc(CN)c3F)c3occc3c2)c1 [Compound 272e, 2-(2-((7-(2-(aminomethyl)-3-fluoropyridin-4-yl)benzofuran-5-yl)methoxy)-4-methylphenyl)acetic acid]
< 1000 nM	NCc1cccc(-c2cc(CC(=O)N3[C@@H]4C[C@@H]4C[C@H]3C(=O)NCc3cccc(Cl)c3F)cc3ccoc23)c1 [Compound 273g, (1R,3S,5R)-2-(2-(7-(3-(aminomethyl)phenyl)benzofuran-5-yl)acetyl)-N-(3-chloro-2-fluorobenzyl)-2-azabicyclo[3.1.0]hexane-3-carboxamide]
< 1000 nM	Cc1cccc(CC(=O)O)c1OCc1cc(-c2cccc(CN)c2)c2occc2c1 [Compound 274g, 2-(2-((7-(3-(aminomethyl)phenyl)benzofuran-5-yl)methoxy)-3-methylphenyl)acetic acid]
1000 to 10000 nM	NCc1ccc(-c2cc(CC(=O)N3[C@@H]4C[C@@H]4C[C@H]3C(=O)NCc3cccc(Cl)c3F)cc3ccoc23)cc1 [Compound 275e, (1R,3S,5R)-2-(2-(7-(4-(aminomethyl)phenyl)benzofuran-5-yl)acetyl)-N-(3-chloro-2-fluorobenzyl)-2-azabicyclo[3.1.0]hexane-3-carboxamide]
< 1000 nM	Cc1cc(CC(=O)O)c(OCc2cc(-c3cccc(CN)c3)c3occc3c2)cc1C [Compound 276f, 2-(2-((7-(3-(aminomethyl)phenyl)benzofuran-5-yl)methoxy)-4,5-dimethylphenyl)acetic acid]
< 1000 nM	NCc1cccc(-c2cc(CC(=O)N3CCC[C@H]3C(=O)NCc3cccc(Cl)c3F)cc3ccoc23)c1 [Compound 277e, (S)-1-(2-(7-(3-(aminomethyl)phenyl)benzofuran-5-yl)acetyl)-N-(3-chloro-2-fluorobenzyl)pyrrolidine-2-carboxamide]
< 1000 nM	COc1cncc(NCc2cc3cc(COc4ccccc4CC(=O)O)cc(-c4cccc(CN)c4)c3o2)c1 [Compound 279c, 2-(2-((7-(3-(aminomethyl)phenyl)-2-(((5-methoxypyridin-3-yl)amino)methyl)benzofuran-5-yl)methoxy)phenyl)acetic acid]
< 1000 nM	COc1ccc(NCc2cc3cc(COc4ccccc4CC(=O)O)cc(-c4cccc(CN)c4)c3o2)cc1 [Compound 280c, 2-(2-((7-(3-(aminomethyl)phenyl)-2-(((4-methoxyphenyl)amino)methyl)benzofuran-5-yl)methoxy)phenyl)acetic acid]
< 1000 nM	NCc1cccc(-c2cc(COc3ccccc3CC(=O)O)cc3cc(CNCc4cccnc4)oc23)c1 [Compound 281c, 2-(2-((7-(3-(aminomethyl)phenyl)-2-(((pyridin-3-ylmethyl)amino)methyl)benzofuran-5-yl)methoxy)phenyl)acetic acid]
< 1000 nM	NCc1cccc(-c2cc(COc3cccc(C(F)(F)F)c3CC(=O)O)cc3ccoc23)c1 [Compound 282f, 2-(2-((7-(3-(aminomethyl)phenyl)benzofuran-5-yl)methoxy)-6-(trifluoromethyl)phenyl)acetic acid]
< 1000 nM	NCc1cccc(-c2cc(COc3ccccc3CC(=O)O)cc3cc(CNCc4ccccc4)oc23)c1 [Compound 283c, 2-(2-((7-(3-(aminomethyl)phenyl)-2-((benzylamino)methyl)benzofuran-5-yl)methoxy)phenyl)acetic acid]
< 1000 nM	NCc1cccc(-c2cc(COc3ccccc3CC(=O)O)cc3cc(COCc4ccccc4)oc23)c1 [Compound 284f, 2-(2-((7-(3-(aminomethyl)phenyl)-2-((benzyloxy)methyl)benzofuran-5-yl)methoxy)phenyl)acetic acid]

More lines, now with the values behind:

Structure (SMILES)	IC50
NCc1cccc(-c2cc(COc3ccccc3CC(=O)O)cc3c(N)noc23)c1F [Compound 245g, 2-(2-((3-amino-7-(3-(aminomethyl)-2-fluorophenyl)benzo[d]isoxazol-5-yl)methoxy)phenyl)acetic acid]	< 1000 nM
NCc1cccc(-c2cc(C(=O)Nc3ccccc3CC(=O)O)c(F)c3ccoc23)c1F [Compound 246b, 2-(2-(7-(3-(aminomethyl)-2-fluorophenyl)-4-fluorobenzofuran-5-carboxamido)phenyl)acetic acid]	< 1000 nM
NCc1cccc(-c2cc(COc3ccccc3CC(=O)O)cc3ccsc23)c1F [Compound 247b, 2-(2-((7-(3-(aminomethyl)-2-fluorophenyl)benzo[b]thiophen-5-yl)methoxy)phenyl)acetic acid]	< 1000 nM
NCc1cccc(-c2cc(COc3ccccc3CC(=O)O)cc3ccoc23)c1O [Compound 248c, 2-(2-((7-(3-(aminomethyl)-2-hydroxyphenyl)benzofuran-5-yl)methoxy)phenyl)acetic acid]	< 1000 nM
NCc1cccc(-c2cc(COc3ccc(O)cc3CC(=O)O)cc3ccoc23)c1 [Compound 249f, 2-(2-((7-(3-(aminomethyl)phenyl)benzofuran-5-yl)methoxy)-5-hydroxyphenyl)acetic acid]	< 1000 nM
NCc1cccc(-c2cc(NC(=O)[C@@H]3CCCN3CC(=O)O)cc3ccoc23)c1 [Compound 250f, (S)-2-(2-((7-(3-(aminomethyl)phenyl)benzofuran-5-yl)carbamoyl)pyrrolidin-1-yl)acetic acid]	1000 to 10000 nM
COc1c(C(=O)Nc2ccccc2CC(=O)O)cc(-c2ccnc(CN)c2)c2occc12 [Compound 251c, 2-(2-(7-(2-(aminomethyl)pyridin-4-yl)-4-methoxybenzofuran-5-carboxamido)phenyl)acetic acid]	1000 to 10000 nM
CC(=O)c1cc2cc(COc3ccccc3CC(=O)O)cc(-c3cccc(CN)c3)c2o1 [Compound 252d, 2-(2-((2-acetyl-7-(3-(aminomethyl)phenyl)benzofuran-5-yl)methoxy)phenyl)acetic acid]	< 1000 nM
NCc1cccc(-c2cc(COc3ccccc3C(NC(=O)CCc3ccccc3)C(=O)O)cc3ccoc23)c1 (stereo not drawn) [Compound 253f, 2-(2-((7-(3-(aminomethyl)phenyl)benzofuran-5-yl)methoxy)phenyl)-2-(3-phenylpropanamido)acetic acid]	< 1000 nM
NCc1cccc(-c2cc(COc3ccc(CO)cc3CC(=O)O)cc3ccoc23)c1 [Compound 254c, 2-(2-((7-(3-(aminomethyl)phenyl)benzofuran-5-yl)methoxy)-5-(hydroxymethyl)phenyl)acetic acid]	< 1000 nM
NCc1cccc(-c2cc(C(=O)Nc3ccccc3CC(=O)O)nc3ccoc23)c1 [Compound 255c, 2-(2-(7-(3-(aminomethyl)phenyl)furo[3,2-b]pyridine-5-carboxamido)phenyl)acetic acid]	1000 to 10000 nM
NCc1cc(F)cc(-c2cc(COc3ccccc3CC(=O)O)cc3ccoc23)c1F [Compound 256c, 2-(2-((7-(3-(aminomethyl)-2,5-difluorophenyl)benzofuran-5-yl)methoxy)phenyl)acetic acid]	< 1000 nM
Cc1cc2cc(COc3cc(CN)ccc3CC(=O)O)cc(-c3cccc(CN)c3)c2o1 [Compound 257k, 2-(4-(aminomethyl)-2-((7-(3-(aminomethyl)phenyl)-2-methylbenzofuran-5-yl)methoxy)phenyl)acetic acid]	< 1000 nM
NCc1cccc(-c2cc(COc3cc(F)ccc3CC(=O)O)cc3ccoc23)c1 [Compound 260g, 2-(2-((7-(3-(aminomethyl)phenyl)benzofuran-5-yl)methoxy)-4-fluorophenyl)acetic acid]	< 1000 nM
NCc1cccc(-c2cc(COc3cc(CC4CC4)ccc3CC(=O)O)cc3ccoc23)c1 [Compound 261c, 2-(2-((7-(3-(aminomethyl)phenyl)benzofuran-5-yl)methoxy)-4-(cyclopropylmethyl)phenyl)acetic acid]	< 1000 nM
CC(=O)c1ccc(CC(=O)O)c(OCc2cc(-c3cccc(CN)c3)c3occc3c2)c1 [Compound 262c, 2-(4-acetyl-2-((7-(3-(aminomethyl)phenyl)benzofuran-5-yl)methoxy)phenyl)acetic acid]	< 1000 nM
NCc1cccc(-c2cc(COc3cc(-c4ccccc4)ccc3CC(=O)O)cc3ccoc23)c1 [Compound 263c, 2-(3-((7-(3-(aminomethyl)phenyl)benzofuran-5-yl)methoxy)-[1,1′-biphenyl]-4-yl)acetic acid]	< 1000 nM
NCc1cccc(-c2cc(COc3c(F)cccc3CC(=O)O)cc3ccoc23)c1 [Compound 264c, 2-(2-((7-(3-(aminomethyl)phenyl)benzofuran-5-yl)methoxy)-3-fluorophenyl)acetic acid]	< 1000 nM
CCOc1ccc(CC(=O)O)c(OCc2cc(-c3cccc(CN)c3)c3occc3c2)c1 [Compound 265g, 2-(2-((7-(3-(aminomethyl)phenyl)benzofuran-5-yl)methoxy)-4-ethoxyphenyl)acetic acid]	< 1000 nM
